{
  "source": "patent US20120010292A1",
  "about": "“MODIFICATION I OF 4-(PHENYL)ETHYL]-AMINO}METHYL)BENZOIC ACID” (BAYER SCHERING PHARMA AKTIENGESELLSCHAFT, priority 2008, published 2012)",
  "assay": "Stability of the crystal modification (thermodynamic and storage stability)",
  "type": "physicochemical",
  "conditions": "for thermodynamic stability of the crystal modification: solid form of the compound of the formula (I)",
  "data": [
    {"smiles": "O=C(O)CCCCN(CCc1ccccc1OCc1ccc(CCc2ccccc2)cc1)Cc1ccc(C(=O)O)cc1", "note": "[modification I, 4-({(4-carboxybutyl)[2-(2-{[4-(2-phenylethyl)benzyl]oxy}phenyl)ethyl]amino}-methyl)benzoic acid]", "values": [
      {"measurement": "storage stability", "setting": "even after processing to suspensions", "result": "storage-stable"},
      {"measurement": "thermodynamic stability of the crystal modification", "result": "thermodynamically stable"}
    ]},
    {"smiles": "O=C(O)CCCCN(CCc1ccccc1OCc1ccc(CCc2ccccc2)cc1)Cc1ccc(C(=O)O)cc1", "note": "[modification IV, 4-({(4-Carboxybutyl)[2-(2-{[4-(2-phenylethyl)benzyl]oxy}phenyl)ethyl]amino}methyl)benzoic acid]", "values": [
      {"measurement": "thermodynamic stability of the crystal modification", "result": "metastable"}
    ]}
  ]
}
